Calls of active or inactive are those of the source.
Key:
[1] = molecular target: T1, Short transient receptor potential channel 4 (Mus musculus, UniProt Q9QUQ5); assay: block of DAMGO-driven TRPC4 calcium entry – cell-based, HEK293 TRPC4/mu-opioid, Fluo-4 calcium, dose response (AID 434942); format: functional;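 also: potency of inhibitors blocking the TRPC4 calcium response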
T1 sequence (Q9QUQ5 whole entry): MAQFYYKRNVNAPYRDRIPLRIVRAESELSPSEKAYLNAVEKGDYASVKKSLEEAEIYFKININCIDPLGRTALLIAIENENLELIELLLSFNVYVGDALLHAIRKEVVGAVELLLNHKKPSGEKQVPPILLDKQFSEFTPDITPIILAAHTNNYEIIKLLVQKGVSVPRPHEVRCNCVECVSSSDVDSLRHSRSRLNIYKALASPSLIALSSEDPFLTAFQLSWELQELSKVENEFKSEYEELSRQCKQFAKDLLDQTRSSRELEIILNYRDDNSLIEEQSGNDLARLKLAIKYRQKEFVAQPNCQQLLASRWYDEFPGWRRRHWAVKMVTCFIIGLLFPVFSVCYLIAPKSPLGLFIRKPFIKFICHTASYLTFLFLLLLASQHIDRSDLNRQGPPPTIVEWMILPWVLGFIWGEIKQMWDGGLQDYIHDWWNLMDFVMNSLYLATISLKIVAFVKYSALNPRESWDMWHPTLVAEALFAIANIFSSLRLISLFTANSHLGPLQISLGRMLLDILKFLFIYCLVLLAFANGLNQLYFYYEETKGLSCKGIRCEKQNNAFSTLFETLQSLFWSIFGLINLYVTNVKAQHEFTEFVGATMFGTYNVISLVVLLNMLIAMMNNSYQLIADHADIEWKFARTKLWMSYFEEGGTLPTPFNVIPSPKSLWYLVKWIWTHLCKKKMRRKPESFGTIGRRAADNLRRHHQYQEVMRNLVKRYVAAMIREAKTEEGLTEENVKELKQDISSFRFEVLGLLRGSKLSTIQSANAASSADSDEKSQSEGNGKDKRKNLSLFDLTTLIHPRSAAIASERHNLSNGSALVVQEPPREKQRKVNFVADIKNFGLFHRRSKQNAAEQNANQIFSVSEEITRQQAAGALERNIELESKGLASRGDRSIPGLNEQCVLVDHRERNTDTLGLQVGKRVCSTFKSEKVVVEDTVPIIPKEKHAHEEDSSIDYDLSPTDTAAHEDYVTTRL

[2] = microbe, parasite or virus in culture; format: functional; details: Mycobacterium tuberculosis
cells = format: functional
[3] = HEK-293T viability loss after treatment – luminescence, T-cell screen hits, cytotoxicity control for TCR NF-kB inhibitor project, dose response (AID 489026); format: functional, cell-based;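 also: cells exposed to compound about 14 hours before the viability readout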
[4] = viability of uninfected HEp-2 cells – cell-based, HTS, cytotoxicity control for RSV inhibitor project, dose response (AID 2410); format: functional; details: human respiratory syncytial virus
[5] = molecular target: FAD-linked sulfhydryl oxidase ALR (Homo sapiens, UniProt P55789); assay: ALR-catalysed DTT oxidation blockers – biochemical, H2O2 detection, luminescence, cherry-pick, dose response (AID 493248)
HEK293 [6] = assay: cells; format: functional, cell-based; details: Homo sapiens
HEK293 [7] = assay: cells; format: functional, cell-based; details: Homo sapiens; remark: listed apart in the source
HEK293 [8] = assay: NOD2 signaling inhibitors in MDP-stimulated cells, cell-based, uHTS, luminescence (AID 2001); format: functional; details: Homo sapiens
HEK293 [9] = assay: inhibition of NOD1-driven NF-kB reporter – cell-based, luminescence, uHTS, primary screen (AID 1578); format: functional; details: Homo sapiens
[10] = Luminescence Cell-Based Dose Retest to Confirm Inhibitors of Cancer Stem Cells. [Related pubchem assays (depositor defined):AID2717, AID2721]; format: functional, Homo sapiens; details: Homo sapiens
[11] = molecular target: Induced myeloid leukemia cell differentiation protein Mcl-1 (Homo sapiens, UniProt Q07820); format: functional
[12] = Trypanosoma cruzi growth suppression in host cells – NIH3T3 host cells, beta-gal luminescence, confirmation (AID 2044); format: functional, cell-based;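 also: intracellular parasites grown in NIH/3T3 mouse fibroblasts as host cells; luminescent beta-galactosidase reporter signal from transgenic T. cruzi replicating inside host cells; inhibitors lower the luminescence signal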
[13] = NIH3T3 cell viability loss – ATP luminescence, mouse fibroblasts, counter-screen, dose response (AID 2010); format: functional, cell-based;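 also: cells exposed to compound for about 90 hours before reading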
[14] = luciferase reporter signal suppression in cells – H4 neuroglioma cells, luminescence, dose response (AID 1990); format: functional, cell-based
[15] = Luminescence Cell-Based Dose Response HTS to Identify Inhibitors of 5'UTR Stem-Loop Driven Prion Protein mRNA Translation in H4 Neuroglioblastoma Cells. [Related pubchem assays: 1827 (Project Summary), 1813 (Primary HTS)]; format: functional
[16] = alpha-synuclein stem-loop luciferase translation blockers – H4 neuroglioma cells, luminescence, confirmation (AID 1988); format: functional, cell-based
[17] = molecular target: T2, Rac GTPase-activating protein 1 (Homo sapiens, UniProt Q9H0H5); assay: blockers of MgcRacGAP-driven Rac1 GTP hydrolysis – biochemical, ADP Hunter fluorescence, primary and confirmatory, confirmation (AID 624330); format: functional
T2 sequence (Q9H0H5 whole entry): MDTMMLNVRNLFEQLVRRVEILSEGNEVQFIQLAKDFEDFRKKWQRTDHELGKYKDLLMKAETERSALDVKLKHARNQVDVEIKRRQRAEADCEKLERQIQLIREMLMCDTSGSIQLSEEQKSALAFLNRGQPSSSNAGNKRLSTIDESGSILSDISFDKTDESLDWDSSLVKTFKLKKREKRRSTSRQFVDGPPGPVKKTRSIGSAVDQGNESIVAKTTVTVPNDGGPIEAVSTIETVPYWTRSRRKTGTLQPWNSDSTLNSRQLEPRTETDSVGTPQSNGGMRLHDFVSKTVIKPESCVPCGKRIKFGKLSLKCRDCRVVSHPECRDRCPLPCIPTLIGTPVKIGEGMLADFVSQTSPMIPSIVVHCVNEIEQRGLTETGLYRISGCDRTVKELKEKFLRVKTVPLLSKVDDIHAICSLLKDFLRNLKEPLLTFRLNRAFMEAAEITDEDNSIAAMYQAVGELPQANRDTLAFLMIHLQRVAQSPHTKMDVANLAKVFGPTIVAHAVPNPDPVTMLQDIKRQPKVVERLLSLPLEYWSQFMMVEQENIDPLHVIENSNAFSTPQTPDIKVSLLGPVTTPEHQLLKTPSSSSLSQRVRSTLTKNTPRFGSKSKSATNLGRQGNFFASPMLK

[18] = molecular target: T3, Heat shock factor protein 1 (Mus musculus, UniProt P38532); assay: decrease of HSF1-responsive luciferase luminescence – cell-based, NIH3T3, dose retest, confirmation (AID 2382); format: functional;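 also: NIH3T3 fibroblasts with HSF1-driven luciferase reporter stressed by proteasome inhibitor MG132; luminescence from HSF1-driven luciferase expression after 8 hours of MG132 stress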
T3 sequence (P38532 whole entry): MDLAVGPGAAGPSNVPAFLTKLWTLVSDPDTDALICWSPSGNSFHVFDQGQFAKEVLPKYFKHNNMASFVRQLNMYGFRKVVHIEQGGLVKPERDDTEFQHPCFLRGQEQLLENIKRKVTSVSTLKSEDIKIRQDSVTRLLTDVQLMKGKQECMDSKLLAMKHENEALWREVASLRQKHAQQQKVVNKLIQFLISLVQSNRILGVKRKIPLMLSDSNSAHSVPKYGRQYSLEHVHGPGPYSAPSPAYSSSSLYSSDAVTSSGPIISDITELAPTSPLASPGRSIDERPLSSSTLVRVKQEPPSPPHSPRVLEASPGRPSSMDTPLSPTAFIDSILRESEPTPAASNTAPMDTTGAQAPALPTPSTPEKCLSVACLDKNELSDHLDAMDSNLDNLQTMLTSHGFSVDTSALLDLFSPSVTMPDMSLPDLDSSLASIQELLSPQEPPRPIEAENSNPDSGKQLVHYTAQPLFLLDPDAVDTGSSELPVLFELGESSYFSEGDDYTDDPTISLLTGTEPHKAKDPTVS

INS1 = assay: INS-1E survival protection against cytokine death – cell-based, luminescence, retest, dose response (AID 449756); format: functional; details: Rattus norvegicus;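 also: cell death triggered by IL-1 beta plus TNF-alpha plus IFN-gamma mixture; protective hits raise ATP signal compared with cytokine alone wells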

Chain of FAD-linked sulfhydryl oxidase ALR (P55789 whole entry): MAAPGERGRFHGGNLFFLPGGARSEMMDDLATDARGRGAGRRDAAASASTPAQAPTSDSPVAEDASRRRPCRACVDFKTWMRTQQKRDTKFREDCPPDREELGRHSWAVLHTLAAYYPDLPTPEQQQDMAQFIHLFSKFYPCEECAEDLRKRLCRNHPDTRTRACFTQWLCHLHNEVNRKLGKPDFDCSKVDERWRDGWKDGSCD
Chain of Induced myeloid leukemia cell differentiation protein Mcl-1 (Q07820 whole entry): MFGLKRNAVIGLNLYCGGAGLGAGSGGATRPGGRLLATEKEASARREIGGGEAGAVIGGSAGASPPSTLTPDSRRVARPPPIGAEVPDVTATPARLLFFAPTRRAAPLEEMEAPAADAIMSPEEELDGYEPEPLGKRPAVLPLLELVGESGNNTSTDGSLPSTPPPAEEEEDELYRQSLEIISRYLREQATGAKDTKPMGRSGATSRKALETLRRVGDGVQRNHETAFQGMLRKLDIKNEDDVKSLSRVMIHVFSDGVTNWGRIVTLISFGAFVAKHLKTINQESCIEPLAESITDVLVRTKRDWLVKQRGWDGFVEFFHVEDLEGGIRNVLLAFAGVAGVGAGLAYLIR

With `CCC1(C(=O)c2ccccc2)C(c2ccc([N+](=O)[O-])cc2)C1(C(=O)OC)C(=O)OC` (stereo not drawn) as the compound, how does the EC50 [1] read?
The EC50 was 4.22 µM (active).

With `Cn1c(CNc2ccccc2O)nc2ccccc21` as the compound, how does the CC50 [2] read?
Its CC50 is 30.4 µM (active).

What about the IC50 (cells) of the same compound?
Its IC50 is 4.79 µM (active).

For `Cc1c(C(=O)OC2CCCC2)[nH]c2c1C(=O)CC(c1ccco1)C2` (stereo not drawn), which IC50 [3] is on record?
The IC50 was > 80 µM (inactive).

With `CCCCOc1ccc(CSCCN=C(N)N)cc1` as the compound, how does the EC50 [1] read?
Its EC50 is 3.35 µM (active).

With `CC(C)CCN1CCN(Cc2ccsc2)CC1CCO` (stereo not drawn) as the compound, how does the EC50 [1] read?
The EC50 was 4.22 µM (active).

With `CCN(CC)c1ccc([N+](=O)[O-])c2cccnc12` as the compound, how does the EC50 [1] read?
The EC50 was 10.6 µM (active).

What about the CC50 [4] of the same compound?
Its CC50 is 36.7 µM (active).

For `O=C(C1CCCC1)N1CCN=C1SCc1cccc([N+](=O)[O-])c1`, which AC50 [5] is on record?
The AC50 was 0.032 µM (active).

For `COc1ccc(/C=C/CN2CCC(CO)(Cc3ccccc3Cl)CC2)cc1`, which CC50 [2] is on record?
Its CC50 is 32.7 µM (active).

Which EC50 [1] does the source give for `Cc1nn(C(=O)c2cccc([N+](=O)[O-])c2)c(C)c1Sc1ccccc1` here?
The EC50 was 2.66 µM (active).

Which IC50 (HEK293 [6]) does the source give for `O=C(c1[nH]nc2c1CCc1ccccc1-2)N1CCN(Cc2ccc3c(c2)OCO3)CC1` here?
Its IC50 is 8.27 µM (active).

And the IC50 (HEK293 [7])?
Its IC50 is 4.07 µM (active).

And the IC50 (HEK293 [8])?
The IC50 was 5.11 µM (active).

What about the EC50 (HEK293 [9]) of the same compound?
Its EC50 is 5.4 µM (active).

With `COc1cc(-c2noc(C)c2/C=C/c2ccc(OC(C)=O)cc2)cc(OC)c1OC` as the compound, how does the AC50 [10] read?
The AC50 was 0.222 µM (active).

What about the IC50 [3] of the same compound?
The IC50 was 52.8 µM (inactive).

For `CCS(=O)(=O)N1CCN(C(C)CCc2ccccc2)CC1` (stereo not drawn), which IC50 [11] is on record?
The IC50 was 6 µM (not active).

For `O=C1NC(=S)N/C1=C/c1cccn1-c1ccc([N+](=O)[O-])cc1`, which IC50 [11] is on record?
Its IC50 is 4.63 µM (not active).

What does the source list for `Cc1cc(C(=O)NNc2ccccc2F)no1`?
EC50 [12]: 2.26 µM (active); EC50 [13]: 5.14 µM (active); AC50 [5]: 5.7 µM (active)

Which EC50 [14] does the source give for `CCOc1ccc(S(=O)(=O)N2c3ccccc3CC2C)cc1` (stereo not drawn) here?
Its EC50 is 7.65 µM (inconclusive).

And the EC50 [15]?
The EC50 was 7.42 µM (active).

What about the EC50 [16] of the same compound?
Its EC50 is 3.2 µM (active).

And the IC50 [3]?
The IC50 was > 80 µM (inactive).

Which IC50 [17] does the source give for `Nc1ccc(N2CCN(c3ccccc3)CC2)c(F)c1` here?
Its IC50 is 46.6 µM (active).

What about the AC50 [5] of the same compound?
Its AC50 is 13.2 µM (active).

Which EC50 [18] does the source give for `COc1ccc(Nc2ncnc3ccc(Br)cc23)c(OC)c1` here?
Its EC50 is 0.354 µM (active).

What about the IC50 [3] of the same compound?
Its IC50 is > 80 µM (inactive).

With `NC(=O)c1nsc(C(=O)N(Cc2ccco2)C(C(=O)NCC2CCCO2)c2ccc(F)cc2)c1N` (stereo not drawn) as the compound, how does the EC50 [1] read?
The EC50 was 10.6 µM (active).

With `C=C1C(O)[C@@H]2O[C@]3(CC[C@H](/C=C/C(C)[C@@H]4CC(C)=CC5(O[C@H](C[C@@](C)(O)CO)CCC5O)O4)O3)CC[C@H]2O[C@@H]1C(O)CC(C)[C@H]1OC2(CCCCO2)CCC1C` (stereo partly drawn) as the compound, how does the AC50 (INS1) read?
Its AC50 is 5.98 µM (active).

What about the IC50 [3] of the same compound?
The IC50 was > 80 µM (inactive).
